Key:
COLO 205 = assay: NCI-60 SRB growth assay; assay type: cell-based, human; settings: for TGI / GI50: COLO 205; for GI50 / CC50: Homo sapiens; for CC50: COLO 205, read-out: LC50
HT29 = assay: NCI-60 SRB growth assay; assay type: cell-based, human; settings: for TGI: HT29; for GI50 / CC50: Homo sapiens; for GI50: HT-29; for CC50: HT-29, read-out: LC50
KM12 = assay: NCI-60 SRB growth assay; assay type: cell-based, human; settings: for GI50 / CC50: Homo sapiens; for GI50 / TGI: KM12; for CC50: KM12, read-out: LC50
SNB-19 = assay: NCI-60 SRB growth assay; assay type: cell-based, human; settings: for CC50: SNB-19, read-out: LC50
IGROV1 = assay: NCI-60 SRB growth assay; assay type: cell-based, human; settings: for GI50: IGROV-1; for TGI: IGROV1
SK-OV-3 = assay: NCI-60 SRB growth assay; assay type: cell-based, human; settings: for GI50 / CC50: Homo sapiens; for GI50 / TGI: SK-OV-3; for CC50: SK-OV-3, read-out: LC50
ACHN = assay: NCI-60 SRB growth assay; assay type: cell-based, human; settings: for GI50 / CC50: Homo sapiens; for CC50: read-out: LC50
TK-10 = assay: NCI-60 SRB growth assay; assay type: cell-based, human; settings: for GI50 / CC50: Homo sapiens; for GI50 / TGI: TK-10; for CC50: TK-10, read-out: LC50
MDA-MB-231 cells = assay: Cell cycle analysis by flow cytometry; assay type: cell-based, human; settings: at 6 and 12 h; control 1–2%

SMILES	TGI (COLO 205) [nM]	GI50 (COLO 205) [nM]	CC50 (COLO 205) [nM]	TGI (HT29) [nM]	GI50 (HT29) [nM]	CC50 (HT29) [nM]	GI50 (KM12) [nM]	CC50 (KM12) [nM]	TGI (KM12) [nM]	CC50 (SNB-19; Homo sapiens) [nM]	TGI (SNB-19; SNB-19) [nM]	GI50 (IGROV1; Homo sapiens) [nM]	TGI (IGROV1) [nM]	GI50 (SK-OV-3) [nM]	CC50 (SK-OV-3) [nM]	TGI (SK-OV-3) [nM]	TGI (ACHN) [nM]	GI50 (ACHN) [nM]	CC50 (ACHN) [nM]	GI50 (TK-10) [nM]	also measured
CCCN1CCN(c2ccc3[nH]c(-c4ccc5[nH]c(-c6ccc(OCC)c(OCC)c6)nc5c4)nc3c2)CC1 [11a, 2-(2-(3,4-Diethoxyphenyl)-1H-benzo[d]imidazol-5-yl)-5-(4-propylpiperazin-1-yl)-1H-benzo[d]imidazole]	1290	160	5400	2300	450	> 100000	1260	6400	2800	5600	2180	760	4100	2100	9900	10200	2100	820	4770	1220	CC50 (IGROV1; Homo sapiens, IGROV-1, read-out: LC50): 37800 nM; CC50 (TK-10): 2470 nM; TGI (TK-10): 4900 nM; TGI (HL-60(TB)): 2700 nM
CCCCN1CCN(c2ccc3[nH]c(-c4ccc5[nH]c(-c6ccc(OCC)c(OCC)c6)nc5c4)nc3c2)CC1 [12a, 5-(4-Butylpiperazin-1-yl)-2-(2-(3,4-diethoxyphenyl)-1H-benzo[d]imidazol-5-yl)-1H-benzo[d]imidazole]	1520	230	6180	2970	800	100000	1420	6280	2990	5580	2610	1150	2600	1330	8010	3270	2120	920	4650	1660	GI50 (SNB-19; Homo sapiens, SNB-19): 1220 nM; CC50 (TK-10): > 100000 nM; TGI (TK-10): 5170 nM
CCCCN1CCN(c2ccc3[nH]c(-c4ccc5[nH]c(-c6ccc(C(F)(F)F)cc6)nc5c4)nc3c2)CC1 [12b, 5-(5-(4-Butylpiperazin-1-yl)-1H-benzo[d]imidazol-2-yl)2(4(trifluoromethyl)phenyl)-1H-benzo[d]imidazole]	3100	1300		1420	340		670	4900	2040			1700	3400				2600	1320	5140		cells in the sub-G1 phase (MDA-MB-231 cells): 7.4%; TGI (HL-60(TB)): 2800 nM

Reference: publication PMC8793051 (ACS Omega, 2022)
